Assay [1] addresses T1, HRP (Armoracia rusticana, UniProt P00433).
T1 sequence (P00433 31-338): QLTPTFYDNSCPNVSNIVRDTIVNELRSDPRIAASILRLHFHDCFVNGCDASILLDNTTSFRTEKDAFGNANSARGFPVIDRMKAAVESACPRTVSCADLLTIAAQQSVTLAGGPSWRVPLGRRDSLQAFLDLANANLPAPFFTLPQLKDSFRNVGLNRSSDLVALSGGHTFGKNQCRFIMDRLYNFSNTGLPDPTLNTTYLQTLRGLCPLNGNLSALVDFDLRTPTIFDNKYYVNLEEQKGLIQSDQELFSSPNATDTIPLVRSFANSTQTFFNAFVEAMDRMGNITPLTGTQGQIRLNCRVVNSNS
The experiment in a line: Inhibition of 1 mU of HRP activity using heavy metal salts and other compounds as stop reagents (ABTS, 96-well plate). The settings on record: 1 mU HRP; for Absorbance at 405 nm: higher concentration of Table 1.

The test system of assay [2] is horseradish peroxidase (HRP). The experiment in a line: Inhibition of ABTS turnover catalyzed by a low amount of HRP (sandwich ELISA, non-induced Jurkat cell lysate). It is filed as biochemical, horseradish (Armoracia rusticana). Particulars: SDS 1% or 5%, high concentrations of oxalic acid or sulfuric acid. The protocol:
FIG. 1, A and B: inhibition of ABTS turnover catalyzed by a low amount of HRP (detection of a low amount of mono- and oligosomes in Jurkat cells; further details are given in Example 1). The ordinate indicates absorbance. Groups of bars represent comparative measurements at time points after the addition of stop reagents as indicated: (‡)—control, ABTS solution incubated without HRP, no stop reagent added; (a) to (k)—ABTS solution incubated with HRP and subsequently mixed with stop reagent as indicated: […] Jurkat cells were cultured and subsequently divided into two culture dishes. In one dish the cells were treated with 1 μg/ml CAM (Camptothecin) to induce apoptosis, thereby leading to the formation of mono and oligonucleosomes, the target antigen. After an incubation period of 4 hours the cells of both dishes were harvested separately by centrifugation, lysed by the detergent contained in the Cell Death Detection ELISA Plus (Roche Diagnostics GmbH, Mannheim, Germany; Catalog No. 1920685), and frozen. The mono and oligonucleosomes consisting of DNA and histones H2A, H2B, H3 and H4 were detected in thawed cell homogenate by way of a sandwich ELISA. Antigen was captured with a first monoclonal antibody against histone from the Cell Death Detection ELISA Plus kit. The antibody was coated onto the walls of a 96-well microplate. The detection antibody was a DNA-specific polyclonal antibody conjugated with horseradish peroxidase. Non-induced and CAM-induced Jurkat cells yielded low and high amounts of target antigen, thereby leading to low and high absolute amounts of horseradish peroxidase enzymatic activity in the respective wells. Into each well of the 96-well microplate an aliquot of 100 μl of ABTS Solution (Roche Diagnostics GmbH, Mannheim, Germany; Roche Applied Science, product no. 11684302001) was added. After an incubation for 8 minutes at room temperature, 100 μl of either distilled water or a stop reagent as indicated in the legend to FIG. 1 was added.
On the technique in general: ELISA stands for enzyme-linked immunosorbent assay.

Assay [3] has as its system horseradish peroxidase (HRP). In words: Inhibition of ABTS turnover catalyzed by a high amount of HRP (sandwich ELISA, CAM-induced Jurkat cell lysate). It is filed as biochemical, horseradish (Armoracia rusticana). The protocol: FIG. 2, A and B: inhibition of ABTS turnover catalyzed by a high amount of HRP detection of a high amount of mono- and oligosomes in Jurkat cells; further details are given in Example 1. All other designations are the same as in FIG. 1. Jurkat cells were cultured and subsequently divided into two culture dishes. In one dish the cells were treated with 1 μg/ml CAM (Camptothecin) to induce apoptosis, thereby leading to the formation of mono and oligonucleosomes, the target antigen. After an incubation period of 4 hours the cells of both dishes were harvested separately by centrifugation, lysed by the detergent contained in the Cell Death Detection ELISA Plus (Roche Diagnostics GmbH, Mannheim, Germany; Catalog No. 1920685), and frozen. The mono and oligonucleosomes consisting of DNA and histones H2A, H2B, H3 and H4 were detected in thawed cell homogenate by way of a sandwich ELISA. Antigen was captured with a first monoclonal antibody against histone from the Cell Death Detection ELISA Plus kit. The antibody was coated onto the walls of a 96-well microplate. The detection antibody was a DNA-specific polyclonal antibody conjugated with horseradish peroxidase. Non-induced and CAM-induced Jurkat cells yielded low and high amounts of target antigen, thereby leading to low and high absolute amounts of horseradish peroxidase enzymatic activity in the respective wells. […]

In assay [4] the test system is HRP. The experiment in a line: Inhibition of 1 mU of HRP activity using acidified SDS solution as stop reagent (ABTS). It counts as biochemical, horseradish (Armoracia rusticana). The settings on record: acidification of the reaction mixture to pH about 2.5 to 4.2; SDS final concentration between 0.25% and 2.5% weight by volume. The protocol:
A solution of 5% [w/v] sodium dodecyl sulfate acidified with 0.25 M hydrochloric acid was used as a stop reagent to inhibit 1 mU peroxidase enzymatic activity of HRP. […] 100 μl of stop reagent were added.
Another experiment was performed in which two different SDS concentrations, 5% and 0.5% [w/v] in an acidified solution were compared.

Where [5] appears, read: Table 2b, 6 min, stop reagent added after 8 min incubation.
Where [6] appears, read: Table 2b, 9 min, stop reagent added after 8 min.
Where [7] appears, read: Table 2b, 15 min, stop reagent added after 8 min.
Where [8] appears, read: Table 2b, 30 min, stop reagent added after 8 min.
The mark [9] stands for this setting: Table 2b, 45 min, stop reagent added after 8 min.
Where [10] appears, read: Table 2b, 60 min, stop reagent added after 8 min.
[11] abbreviates: Table 2b, 180 min, stop reagent added after 8 min.

Turning to `[Na+].[Na+].[Na+].[O]=[V]([O-])([O-])[O-]` [(vii), Sodium orthovanadate], the “Decoloration of the dye” value in assay [1] (ABTS) is “decoloration of the dye”. The “Absorbance at 405 nm” value in assay [1] (setting [5]) stood at 1.173; in assay [1] (setting [6]), 0.115; in assay [1] (setting [7]) it was 0.096; in assay [1] (setting [8]) it was 0.089; in assay [1] (setting [9]), 0.088; in assay [1] (setting [10]), 0.092. In addition, the “Absorbance at 405 nm” value in assay [1] (setting [11]) is on record as 0.100.
Regarding `NC(=O)C(=O)[O-].[Na+]` [(xi), Sodium Oxamate], the “Absorbance at 405 nm” value in assay [1] (setting [5]) was 1.182; in assay [1] (setting [6]), 1.776; in assay [1] (setting [7]), 2.525; in assay [1] (setting [8]) it was 3.091; in assay [1] (setting [9]) it was 3.097; in assay [1] (setting [10]), 3.095. Also, in assay [1] (setting [11]), the “Absorbance at 405 nm” value was found to be 2.865.
Consider `[Cl][Ni][Cl]` [(ix), Nickel (II) chloride], for which the “Absorbance at 405 nm” value in assay [1] (setting [5]) was determined as 1.175; in assay [1] (setting [6]), 2.241; in assay [1] (setting [7]), 2.999; in assay [1] (setting [8]), 3.719; in assay [1] (setting [9]), 3.999; in assay [1] (setting [10]), 3.715. Further, the “Absorbance at 405 nm” value in assay [1] (setting [11]) is 3.999.
As for `[F-].[Na+]` [(viii), NaF], the “Inhibition of HRP (in words)” value in assay [1] (ABTS) is given as “affected inhibition, however only partially”. Moreover, the “Absorbance at 405 nm” value in assay [1] (setting [5]) amounted to 1.176; in assay [1] (setting [6]) it was 1.343; in assay [1] (setting [7]) it was 1.424; in assay [1] (setting [8]), 1.572; in assay [1] (setting [9]), 1.721; in assay [1] (setting [10]), 1.818. In addition, the “Absorbance at 405 nm” value in assay [1] (setting [11]) was found to be 2.107.
For the compound `CCCCCCCCCCCCOS(=O)(=O)[O-].[Na+]` [SDS, sodium dodecyl sulfate], the “Inhibition of the reaction (FIG. 1)” value in assay [2] is “complete inhibition”. Also, in assay [3], the “Inhibition of the high amount of HRP activity (FIG. 2)” value is “not able to inhibit completely”. The “Inhibiting peroxidase enzymatic activity (in words)” value in assay [4] is “very effective”.
`O=S(=O)(O)O` [sulfuric acid]: the “Inhibition of the reaction (FIG. 1)” value in assay [2] was “complete inhibition”.
`N#C[S-].[K+]` [(xii), KSCN]: the “Decoloration of the dye” value in assay [1] (ABTS) is “decoloration of the dye”. The “Absorbance at 405 nm” value was determined as 1.179 in assay [1] (setting [5]); 1.207 in assay [1] (setting [6]); 1.290 in assay [1] (setting [7]); 1.201 in assay [1] (setting [8]); 1.086 in assay [1] (setting [9]); 0.989 in assay [1] (setting [10]). Moreover, the “Absorbance at 405 nm” value in assay [1] (setting [11]) stood at 0.849.
As for `[Na+].[OH-]` [(xiii), NaOH], the “Decoloration of the dye” value in assay [1] (ABTS) is “decoloration of the dye”. In addition, the “Absorbance at 405 nm” value in assay [1] (Table 2a, 6 min, stop reagent added after 8 min incubation) worked out at 1.036; in assay [1] (Table 2a, 9 min, stop reagent added after 8 min), 0.878; in assay [1] (Table 2a, 15 min, stop reagent added after 8 min), 0.027; in assay [1] (Table 2a, 30 min, stop reagent added after 8 min), 0.027; in assay [1] (Table 2a, 45 min, stop reagent added after 8 min), 0.027; in assay [1] (Table 2a, 60 min, stop reagent added after 8 min) it was 0.027. In assay [1] (Table 2a, 180 min, stop reagent added after 8 min), the “Absorbance at 405 nm” value is given as 0.026.
As to `O=C(O)C(=O)O` [oxalic acid], the “Inhibition of the reaction (FIG. 1)” value in assay [2] is “complete inhibition”. Also, in assay [3], the “Inhibition of the high amount of HRP activity (FIG. 2)” value is reported as “not able to inhibit completely”.
